One assay concerns HT29 cells. In words: Inhibition of cell necrosis (CCK8 method), HT29 cells. In kind it is cell-based, human. The note with it: HT29, Human TNF-α/AT-406/Z-VAD-FMK, 16 hours, CCK8. As to the method: (§1) In this assay example 2, under the condition of inducing programmed cell necrosis of HT29 and L929 cell lines, different concentrations of the test compounds were added to test the IC50 of the rescue effect of the test compounds on the programmed necrosis.
(§2) • Compounds: dissolved in DMSO to make a 10 mM solution; • TNF-α: initial concentration of 100 µg/mL; • Z-VAD-FMK: dissolved in DMSO to make a 10 mM solution; • AT-406: dissolved in DMSO to make a 10 mM solution. • Cell lines: HT29 cells were cultured in McCoy's 5A medium containing 10% fetal bovine serum, 100 U/mL penicillin, and 100 µg/mL streptomycin, and L929 cells were cultured in MEM medium containing 10% horse serum, 100 U/mL penicillin, and 100 µg/mL streptomycin.
(§3) 1. The test compound was dissolved in DMSO to form a stock solution, and a gradient dilution was performed; the solution was then diluted with the corresponding culture medium to obtain a solution with 10 times the working concentration.
(§4) 2. The cells in the logarithmic growth phase were diluted with culture medium to a specific cell concentration. 80 µL of the cell suspension was added to a 96-well plate, so that the cell densities of HT29 and L929 were 1.2*10^4 cells/well and 2.0*10^4 cells/well, respectively. The plate was cultured in a 37° C., 5% carbon dioxide incubator overnight.
(§5) 3. […] of the compound solution was added to each well of the 96-well plate inoculated with cells. The compounds to be tested were serially diluted 4-fold to obtain 9 concentrations in duplicate, starting from a maximum concentration of 10 μM. At the same time, a control group without compound addition was set up.
(§6) 4. After the cells were cultured for another 30 minutes, 10 μL of the inducer mixture was added to each well. The final concentrations of Human TNF-α, AT-406 and Z-VAD-FMK in HT29 cells were 20 ng/mL, […] and 20 μM, respectively; and the final concentrations of Murine TNF-α and Z-VAD-FMK in L929 cells were 20 ng/mL and 25 μM, respectively.
(§7) 5. The 96-well plate in which compounds and inducer were added was placed in a 37° C., 5% carbon dioxide incubator for further culture, wherein HT29 cells were cultured for 16 hours and L929 cells were cultured for 4-8 hours. Cell viability was detected by CCK8. GraphPad Prism software was used to prepare a dose-effect curve and IC50 was calculated.

Another assay concerns L929 cells. In words: Inhibition of cell necrosis (CCK8 method), L929 cells. It is filed as cell-based, mouse. The note with it: 4-8 hours, CCK8. As to the method:
as §1, §2, §3, §4, §5, §6, §7
In general terms: Formazan colour is commonly taken as a measure of viable cells.

[1] abbreviates: Mus musculus, L929, L929, Murine TNF-α/Z-VAD-FMK.

The values below come from patent publication US20250074892A1, “CARBONYL BRIDGED HETEROCYCLIC COMPOUND, AND COMPOSITION AND APPLICATION THEREOF” (BEIJING SCITECH-MQ PHARMACEUTICALS LIMITED, priority 2022, published 2025).

With `COCCCOc1ccc(C)c(-c2ccnc(N3CCC(C(=O)N4N=CCC4c4cc(F)cc(F)c4)CC3)c2)c1` (stereo not drawn) [Example 5, (5-(3,5-difluorophenyl)-4,5-dihydro-1H-pyrazol-1-yl)(1-(4-(5-(3-methoxypropoxy)-2-methylphenyl)pyridin-2-yl)piperidin-4-yl)methanone], the IC50 – broadly, the concentration needed to halve the response being measured – in the assay with HT29 cells (Homo sapiens, HT-29, 16 h) lay within 10 to 50 nM; in the assay on L929 cells (setting [1]) it was 50 to 100 nM.
For `COCCOc1ccc(C)c(-c2ccnc(N3CCC(C(=O)N4N=CCC4c4ccccc4)CC3)c2)c1` (stereo not drawn) [Example 28, (1-(4-(5-(2-methoxyethoxy)-2-methylphenyl)pyridin-2-yl)piperidin-4-yl)(5-phenyl-4,5-dihydro-1H-pyrazol-1-yl)methanone] the same measures were at most 10 nM and 50 to 100 nM.
On to `Cc1ccc(OCCCO)cc1-c1ccnc(N2CCC(C(=O)N3N=CCC3c3ccccc3F)CC2)c1` (stereo not drawn) [Example 20, (5-(2-fluorophenyl)-4,5-dihydro-1H-pyrazol-1-yl)(1-(4-(5-(3-hydroxypropoxy)-2-methylphenyl)pyridin-2-yl)piperidin-4-yl)methanone], for which the IC50 with HT29 cells is 10 to 50 nM; in the assay on L929 cells (L929, Murine TNF-α/Z-VAD-FMK), 10 to 50 nM.
On to `CC(C)(O)COc1ccc(F)c(-c2ccnc(N3CCC(C(=O)N4N=CCC4c4cc(F)cc(F)c4)CC3)c2)c1` (racemic) [Example 23, (5-(3,5-difluorophenyl)-4,5-dihydro-1H-pyrazol-1-yl)(1-(4-(2-fluoro-5-(2-hydroxy-2-methylpropoxy)phenyl)pyridin-2-yl)piperidin-4-yl)methanone], for which the half-inhibitory concentration (IC50) with HT29 cells (Homo sapiens, HT-29, 16 h) is at most 10 nM; in the assay with L929 cells (setting [1]), at most 10 nM.
On to `COCCCCOc1ccc(C)c(-c2ccnc(N3CCC(C(=O)N4N=CCC4c4cc(F)cc(F)c4)CC3)c2)c1` (stereo not drawn) [Example 34, (5-(3,5-difluorophenyl)-4,5-dihydro-1H-pyrazol-1-yl)(1-(4-(5-(4-methoxybutoxy)-2-methylphenyl)pyridin-2-yl)piperidin-4-yl)methanone], for which the IC50 with HT29 cells was 10 to 50 nM; in the assay with L929 cells (L929, Murine TNF-α/Z-VAD-FMK) it was 50 to 100 nM.
Consider `Cc1ccc(OCCCO)cc1-c1ccnc(N2CCC(C(=O)N3N=CCC3c3ccccc3)CC2)c1` (stereo not drawn) [Example 31, (1-(4-(5-(3-hydroxypropoxy)-2-methylphenyl)pyridin-2-yl)piperidin-4-yl)(5-phenyl-4,5-dihydro-1H-pyrazol-1-yl)methanone], for which the IC50 with HT29 cells (Homo sapiens, HT-29, 16 h) was at most 10 nM; in the assay with L929 cells (setting [1]), 10 to 50 nM.
For the compound `O=C(C1CCN(c2cc(-c3cc(OCC4(O)CC4)ccc3F)ccn2)CC1)N1N=CCC1c1cc(F)cc(F)c1` (stereo not drawn) [Example 45, [5-(3,5-difluorophenyl)-4,5-dihydro-1H-pyrazol-1-yl]-[1-[4-[2-fluoro-5-[(1-hydroxycyclopropyl)methoxy]phenyl]pyridin-2-yl]piperidin-4-yl]methanone], the IC50 in the assay on HT29 cells (Homo sapiens, HT-29, 16 h) is at most 10 nM; in the assay on L929 cells (setting [1]) it was 10 to 50 nM.
For `COCCOc1ccc(C)c(-c2ccnc(N3CCC(C(=O)N4N=CCC4c4ccccc4F)CC3)c2)c1` (stereo not drawn) [Example 19, (5-(2-fluorophenyl)-4,5-dihydro-1H-pyrazol-1-yl)(1-(4-(5-(2-methoxyethoxy)-2-methylphenyl)pyridin-2-yl)piperidin-4-yl)methanone] the same measures were at most 10 nM and 10 to 50 nM.
As for `O=C(C1CCN(c2cc(-c3cc(OCC4(O)CCC4)ccc3F)ccn2)CC1)N1N=CCC1c1cc(F)cc(F)c1` (stereo not drawn) [Example 46, (5-(3,5-difluorophenyl)-4,5-dihydro-1H-pyrazol-1-yl)(1-(4-(2-fluoro-5-((1-hydroxycyclobutyl)methoxy)phenyl)pyridin-2-yl)piperidin-4-yl)methanone], the concentration for half-maximal inhibition (IC50) in the assay on HT29 cells (Homo sapiens, HT-29, 16 h) is at most 10 nM; in the assay on L929 cells (setting [1]) it was 10 to 50 nM.
For the compound `CC(C)(O)CCCOc1ccc(F)c(-c2ccnc(N3CCC(C(=O)N4N=CCC4c4cc(F)cc(F)c4)CC3)c2)c1` (racemic) [Example 24, (5-(3,5-difluorophenyl)-4,5-dihydro-1H-pyrazol-1-yl)(1-(4-(2-fluoro-5-((4-hydroxy-4-methylpentyl)oxy)phenyl)pyridin-2-yl)piperidin-4-yl)methanone], the concentration for half-maximal inhibition (IC50) with HT29 cells (Homo sapiens, HT-29, 16 h) was at most 10 nM; in the assay with L929 cells (setting [1]) it was 10 to 50 nM.
As to `COCCCOc1cccc(-c2ccnc(N3CCC(C(=O)N4N=CCC4c4cc(F)cc(F)c4)CC3)c2)c1` (stereo not drawn) [Example 2, (5-(3,5-difluorophenyl)-4,5-dihydro-1H-pyrazol-1-yl)(1-(4-(3-(3-methoxypropoxy)phenyl)pyridin-2-yl)piperidin-4-yl)methanone], the 50% inhibitory concentration (IC50) in the assay with HT29 cells (Homo sapiens, HT-29, 16 h) was 10 to 50 nM; with L929 cells (setting [1]), 50 to 100 nM.
For `COCCOc1cccc(-c2ccnc(N3CCC(C(=O)N4N=CCC4c4cc(F)cc(F)c4)CC3)c2)c1` (stereo not drawn) [Example 1, (5-(3,5-difluorophenyl)-4,5-dihydro-1H-pyrazol-1-yl)(1-(4-(3-(2-methoxyethoxy)phenyl)pyridin-2-yl)piperidin-4-yl)methanone] the same measures were 10 to 50 nM and 50 to 100 nM.
As for `Cc1ccc(OCCCCO)cc1-c1ccnc(N2CCC(C(=O)N3N=CCC3c3cc(F)cc(F)c3)CC2)c1` (stereo not drawn) [Example 9, (5-(3,5-difluorophenyl)-4,5-dihydro-1H-pyrazol-1-yl)(1-(4-(5-(4-hydroxybutoxy)-2-methylphenyl)pyridin-2-yl)piperidin-4-yl)methanone], the IC50 lay within 10 to 50 nM with HT29 cells (Homo sapiens, HT-29, 16 h) and 10 to 50 nM in the assay on L929 cells (L929, Murine TNF-α/Z-VAD-FMK).
Take `O=C(C1CCN(c2cc(-c3cc(OCC(F)(F)CO)ccc3F)ccn2)CC1)N1N=CCC1c1cc(F)cc(F)c1` (stereo not drawn) [Example 37, (1-(4-(5-(2,2-difluoro-3-hydroxypropoxy)-2-fluorophenyl)pyridin-2-yl)piperidin-4-yl) (5-(3,5-difluorophenyl)-4,5-dihydro-1H-pyrazol-1-yl)methanone]: the concentration for half-maximal inhibition (IC50) in the assay on HT29 cells (Homo sapiens, HT-29, 16 h) was at most 10 nM; in the assay on L929 cells (setting [1]) it was 10 to 50 nM.
For the compound `Cc1ccc(OCC2CCOCC2)cc1-c1ccnc(N2CCC(C(=O)N3N=CCC3c3cc(F)cc(F)c3)CC2)c1` (stereo not drawn) [Example 33, (5-(3,5-difluorophenyl)-4,5-dihydro-1H-pyrazol-1-yl)(1-(4-(2-methyl-5-((tetrahydro-2H-pyran-4-yl)methoxy)phenyl)pyridin-2-yl)piperidin-4-yl)methanone], the half-inhibitory concentration (IC50) was at most 10 nM with HT29 cells (Homo sapiens, HT-29, 16 h) and 10 to 50 nM in the assay on L929 cells (setting [1]).
